# Measured values taken from US11879893B2, “Rapid detection test for SARS-CoV-2” (priority 2020, dated 2024).
# Like-named read-outs stand apart in the source and are kept apart here. Marks after values point to notes of the source that are not given here. Square brackets hold non-standard residues; d marks the D form. Primed or numbered codes have the meaning given here. Peptide text beside a SMILES is read from it. * marks the point of attachment. Dabcyl′ = CN(C)c1ccc(/N=N/c2ccc(C(=O)*)cc2)cc1; Dabcyl = CN(C)c1ccc(N=Nc2ccc(C(=O)*)cc2)cc1; EDANS = O=S(=O)(O)c1cccc2c(NCCN*)cccc12; Sta = CC(C)C[C@H](N)[C@@H](O)CC(=O)O; Isovaleryl = CC(C)CC(=O)*
# B1: Eglin C (protein)
# chain: TEFGSELKSFPEVVGKTVDQAREYFTLHYPQYDVYFLPEGSPVTLDLRYNRVRVFYNPGTNVVNHVPHVG
# Columns and labels:
# [1] = tested on: non-specific protease activity in saliva; assay: Inhibitor test in saliva samples: non-specific protease activity; assay type: biochemical
# Protocol: (§1) The purpose of adding protease inhibitors to the buffer is to reduce nonspecific saliva activity and increase signal to noise ratio. 29 inhibitors were tested using a competitive enzymatic activity assay of 3CL Protease in saliva samples.
# 3CL Protease [2] = target: T1, 3CL Protease (Severe acute respiratory syndrome coronavirus 2, UniProt P0DTC1); assay type: biochemical, SARS-CoV-2; details: saliva samples
# T1 construct: 6xHIS-tag (N); TEV-protease cleavage site (ENLYFQG) (N); made in house
# Protocol: as §1
# [3] = tested on: Buccal sample non-specific protease activity; assay: Inhibitor test in buccal samples: non-specific protease activity; assay type: biochemical
# Protocol: Optimizing Inhibitor Cocktail to Maximize Buccal Sample Non-Specific Protease Activity Inhibition
# (§2) 29 inhibitors were tested using a competitive enzymatic activity assay of 3CL protease in buccal samples.
# 3CL = target: T2, 3CL (Severe acute respiratory syndrome coronavirus 2, UniProt P0DTC1); assay type: biochemical, SARS-CoV-2
# T2 construct: 6xHIS-tag (N); TEV-protease cleavage site (ENLYFQG) (N); made in house; host or cells: Rosetta BL21 E. coli, pET14b
# Protocol: In order to find the final and optimal reaction conditions, several parameters were tested:
# Reducing agent: DTT and TCEP were tested at various concentrations to see if enzyme activity was affected.
# 3CL Protease [4] = target: T1, 3CL Protease; assay type: biochemical, SARS-CoV-2
# Protocol: as §2
# SARS-CoV-2 3CL Pro = SARS-CoV-2 3CL Pro (Severe acute respiratory syndrome coronavirus 2, UniProt P0DTC1); details: for Enzymatic activity, Slope, SARS-CoV-2: enzyme 150 ng/reaction; for % Enz activity, SARS-CoV-2: Table 5: relative to the substrate's own protease = 100
# Saliva = assay: Substrate cleavage by saliva (nonspecific activity); assay type: biochemical
# Protocol: For these enzymatic reactions 150 ng/well enzyme was used under final and optimized assay conditions, i.e. […] Experiment were tested with 3 different saliva samples; representative results are shown.
# HCoV-229E 3CL protease = target: T3, HCoV-229E 3CL protease (Human coronavirus 229E, UniProt P0C6U2); assay: Substrate cleavage by HCoV-229E 3CL protease; assay type: biochemical; details: for Enzymatic activity, Slope, HCoV-229E / cross reactivity SARS-CoV-2 versus HCoV-229E protease: enzyme 150 ng/reaction; for % Enz activity, HCoV-229E: Table 5: relative to the substrate's own protease = 100; for cross reactivity SARS-CoV-2 versus HCoV-229E protease: substrate 5 uM
# T3 construct: 6xHIS-tag (N); TEV-protease cleavage site (ENLYFQG) (N); made in house; host or cells: Rosetta BL21 E. coli, pET14b
# Protocol: (§3) Running condition: Substrate concentration-5 uM, enzyme concentration 150 ng/reaction.
# (§4) Enzymatic activity (RFU/min) of SARS-CoV-2, HCoV-229E and HRV 3CL and 3C proteases using peptide (SEQ ID NO: 8) is summarized in Table 6. Substrate concentration-1 μM, enzyme concentration 150 ng/reaction.
# HRV 3C protease = assay: Substrate cleavage by HRV 3C protease; assay type: biochemical, Human Rhinovirus (HRV); details: for % Enz activity, HRV: Table 5: relative to the substrate's own protease = 100
# Protocol: as §3, §4
# [5] = Table 2: 150 ng/well enzyme, 5 μM substrate, Dabcyl/EDANS, final buffer
# [6] = Table 2: 5 μM substrate, Dabcyl/EDANS, final buffer
# [7] = Table 4: substrate 5 uM, enzyme 150 ng/reaction
# [8] = Table 3: 1 uM substrate, 488/535 nm, gain 1400, buffer without BSA
molecule,measurement,setting,value
"2,6 PDA",non-specific protease activity in saliva,[1],decreased
same,inhibition of 3CL specific activity,3CL Protease [2],non significant inhibition
same,ranking among 29 inhibitors tested,[3],four best inhibitors
O[C@@H](CS)[C@@H](O)CS [DTT],effect of reducing agent on enzyme activity,"3CL; various concentrations, DTT 5 mM",most effective at preserving enzyme activity
[Cl-].[Na+] [NaCl],effect of potential enzyme mediator on enzyme activity,3CL,No positive effect
O=S(=O)(F)Cc1ccccc1 [PMSF],non-specific protease activity in saliva,[1],decreased
same,inhibition of 3CL specific activity,3CL Protease [2],non significant inhibition
same,inhibition of 3CL specific activity,3CL Protease [4]; buccal samples,non significant inhibition
same,non-specific protease activity,[3],decreased
same,ranking among 29 inhibitors tested,[3],four best inhibitors
OCC(O)CO [glycerol],effect of potential enzyme mediator on enzyme activity,3CL,No positive effect
CC(C)CC(=O)N[C@H](C(=O)N[C@H](C(=O)N[C@@H](CC(C)C)[C@@H](O)CC(=O)N[C@@H](C)C(=O)N[C@@H](CC(C)C)[C@@H](O)CC(=O)O)C(C)C)C(C)C [pepstatin] (Isovaleryl-VV[Sta]A[Sta]-OH),inhibition of 3CL specific activity,3CL Protease [4],non significant inhibition
same,non-specific protease activity,[3],decreased
AC-DEVD-CHO,non-specific protease activity in saliva,[1],decreased
same,inhibition of 3CL specific activity,3CL Protease [2],non significant inhibition
Aprotinin,non-specific protease activity in saliva,[1],decreased
same,inhibition of 3CL specific activity,3CL Protease [2],non significant inhibition
same,inhibition of 3CL specific activity,3CL Protease [4]; buccal samples,non significant inhibition
same,non-specific protease activity,[3],decreased
Dabcyl-AVLQSGF-{EDANS} [Substrate#3],Enzyme,SARS-CoV-2 3CL Pro; [5],354 +/− 18
same,Saliva,Saliva; [6],47 +/− 5
Dabcyl-AVLQSGFRK-EDANS ({Dabcyl′}-AVLQSGFRK-{EDANS}; SMILES CC(C)C[C@H](NC(=O)[C@@H](NC(=O)[C@H](C)NC(=O)c1ccc(/N=N/c2ccc(N(C)C)cc2)cc1)C(C)C)C(=O)N[C@@H](CCC(N)=O)C(=O)N[C@@H](CO)C(=O)NCC(=O)N[C@@H](Cc1ccccc1)C(=O)N[C@@H](CCCNC(=N)N)C(=O)N[C@@H](CCCCN)C(=O)NCCNc1cccc2c(S(=O)(=O)O)cccc12) [Substrate#4],Enzyme,SARS-CoV-2 3CL Pro; [5],1077 +/− 35
same,Saliva,Saliva; [6],1515 +/− 40
"Dabcyl-KTSAVLQSGFRKME-EDANS [Commercial substrate, reference compound]","Enzymatic activity, Slope, HCoV-229E",HCoV-229E 3CL protease; Table 4: substrate 5 uM,493 RFU/min
same,"% Enz activity, HCoV-229E",HCoV-229E 3CL protease,26%
same,cross reactivity SARS-CoV-2 versus HCoV-229E protease,HCoV-229E 3CL protease,greater activity towards SARS-CoV-2 than HCoV-229E protease
same,Saliva,Saliva; [6],2309 +/− 64
same,"Enzymatic activity, Slope, HRV",HRV 3C protease; [7],87 RFU/min
same,"% Enz activity, HRV",HRV 3C protease,1%
Dabcyl-LEALFQGP[Asp-(EDANS) SQ [Amide] ({Dabcyl′}-LEALFQGPD(EDANS)SQ-NH2; SMILES CC(C)C[C@H](NC(=O)c1ccc(/N=N/c2ccc(N(C)C)cc2)cc1)C(=O)N[C@@H](CCC(=O)O)C(=O)N[C@@H](C)C(=O)N[C@@H](CC(C)C)C(=O)N[C@@H](Cc1ccccc1)C(=O)N[C@@H](CCC(N)=O)C(=O)NCC(=O)N1CCC[C@H]1C(=O)N[C@@H](CC(=O)NCCNc1cccc2c(S(=O)(=O)O)cccc12)C(=O)N[C@@H](CO)C(=O)N[C@@H](CCC(N)=O)C(N)=O) [Biosyn#7],"Enzymatic activity, Slope, SARS-CoV-2",SARS-CoV-2 3CL Pro; Table 4: substrate 5 uM,43 RFU/min
same,"% Enz activity, SARS-CoV-2",SARS-CoV-2 3CL Pro,0%
same,"Enzymatic activity, Slope, HCoV-229E",HCoV-229E 3CL protease; Table 4: substrate 5 uM,45 RFU/min
same,"% Enz activity, HCoV-229E",HCoV-229E 3CL protease,0%
same,"Enzymatic activity, Slope, HRV",HRV 3C protease; [7],1041 RFU/min
same,"% Enz activity, HRV",HRV 3C protease,100%
same,specificity for HRV,"HRV 3C protease; substrate 5 uM, enzyme 150 ng/reaction",specific for HRV
Dabcyl-TSAVLQSGF-EDANS ({Dabcyl′}-TSAVLQSGF-{EDANS}; SMILES CC(C)C[C@H](NC(=O)[C@@H](NC(=O)[C@H](C)NC(=O)[C@H](CO)NC(=O)[C@@H](NC(=O)c1ccc(/N=N/c2ccc(N(C)C)cc2)cc1)[C@@H](C)O)C(C)C)C(=O)N[C@@H](CCC(N)=O)C(=O)N[C@@H](CO)C(=O)NCC(=O)N[C@@H](Cc1ccccc1)C(=O)NCCNc1cccc2c(S(=O)(=O)O)cccc12) [Substrate#2],Enzyme,SARS-CoV-2 3CL Pro; [5],449 +/− 36
same,Saliva,Saliva; [6],187 +/− 7
Dabcyl-TSAVLQSGFRK-EDANS [Biosyn #1],"Enzymatic activity, Slope, HCoV-229E",HCoV-229E 3CL protease; Table 4: substrate 5 uM,856 RFU/min
same,"% Enz activity, HCoV-229E",HCoV-229E 3CL protease,95%
same,cross reactivity SARS-CoV-2 versus HCoV-229E protease,HCoV-229E 3CL protease,Cross reactivity was detected
same,Saliva,Saliva; [6],1123 +/− 35
same,"Enzymatic activity, Slope, HRV",HRV 3C protease; [7],−12 RFU/min
same,"% Enz activity, HRV",HRV 3C protease,−1* %
Dabcyl-TSAVLQSGFYK-EDANS ({Dabcyl′}-TSAVLQSGFYK-{EDANS}; SMILES CC(C)C[C@H](NC(=O)[C@@H](NC(=O)[C@H](C)NC(=O)[C@H](CO)NC(=O)[C@@H](NC(=O)c1ccc(/N=N/c2ccc(N(C)C)cc2)cc1)[C@@H](C)O)C(C)C)C(=O)N[C@@H](CCC(N)=O)C(=O)N[C@@H](CO)C(=O)NCC(=O)N[C@@H](Cc1ccccc1)C(=O)N[C@@H](Cc1ccc(O)cc1)C(=O)N[C@@H](CCCCN)C(=O)NCCNc1cccc2c(S(=O)(=O)O)cccc12) [Substrate#5],Enzyme,SARS-CoV-2 3CL Pro; [5],527 +/− 7
same,Saliva,Saliva; [6],4688 +/− 53
Dabcyl-YGSTLQAGLRK-EDANS ({Dabcyl′}-YGSTLQAGLRK-{EDANS}; SMILES CC(C)C[C@H](NC(=O)CNC(=O)[C@H](C)NC(=O)[C@H](CCC(N)=O)NC(=O)[C@H](CC(C)C)NC(=O)[C@@H](NC(=O)[C@H](CO)NC(=O)CNC(=O)[C@H](Cc1ccc(O)cc1)NC(=O)c1ccc(/N=N/c2ccc(N(C)C)cc2)cc1)[C@@H](C)O)C(=O)N[C@@H](CCCNC(=N)N)C(=O)N[C@@H](CCCCN)C(=O)NCCNc1cccc2c(S(=O)(=O)O)cccc12) [Biosyn#6],"Enzymatic activity, Slope, SARS-CoV-2",SARS-CoV-2 3CL Pro; Table 4: substrate 5 uM,349 RFU/min
same,"% Enz activity, SARS-CoV-2",SARS-CoV-2 3CL Pro,190%
same,"Enzymatic activity, Slope, HCoV-229E",HCoV-229E 3CL protease; Table 4: substrate 5 uM,213 RFU/min
same,"% Enz activity, HCoV-229E",HCoV-229E 3CL protease,100%
same,cross reactivity SARS-CoV-2 versus HCoV-229E protease,HCoV-229E 3CL protease,greater activity towards SARS-CoV-2 than HCoV-229E protease
same,"Enzymatic activity, Slope, HRV",HRV 3C protease; [7],44 RFU/min
same,"% Enz activity, HRV",HRV 3C protease,−7* %
[BHQ-1]-AVLQSGF-[Cys(AF488)]-RK-amide ({BHQ‑1}-AVLQSGFC(AF488)RK-NH2) [CBR #3],Enzyme,SARS-CoV-2 3CL Pro; [8],461 +/− 18
same,Saliva,Saliva; [8],154 +/− 6
[BHQ-1]-AVLQSGFRK-[Cys(AF488)]-amide ({BHQ‑1}-AVLQSGFRKC(AF488)-NH2) [CBR #4],Enzyme,SARS-CoV-2 3CL Pro; [8],657 +/− 6
same,Saliva,Saliva; [8],726 +/− 25
[BHQ-1]-TSAVLQSGF-[Cys(AF488)]-RK-amide ({BHQ‑1}-TSAVLQSGFC(AF488)RK-NH2; also: places amidation at residue 10) [CBR #2],Enzyme,SARS-CoV-2 3CL Pro; [8],6425 +/− 41
same,"Enzymatic activity, Slope, SARS-CoV-2",SARS-CoV-2 3CL Pro; Table 6: substrate 1 μM,3536 RFU/min
same,signal to noise,"SARS-CoV-2 3CL Pro; enzyme versus saliva, Table 3 conditions",12.5
same,"Enzymatic activity, Slope, HCoV-229E",HCoV-229E 3CL protease; Table 6: substrate 1 μM,1116 RFU/min
same,Saliva,Saliva; [8],512 +/− 16
same,"Enzymatic activity, Slope, HRV","HRV 3C protease; Table 6: substrate 1 μM, enzyme 150 ng/reaction",9 RFU/min
[BHQ-1]-TSAVLQSGFRK-[Cys(AF488)]-amide [CBR #1],Saliva,Saliva; [8],1356 +/− 37
B1,non-specific protease activity in saliva,[1],decreased
same,inhibition of 3CL specific activity,3CL Protease [2],non significant inhibition
same,inhibition of 3CL specific activity,3CL Protease [4]; buccal samples,non significant inhibition
same,non-specific protease activity,[3],decreased
same,ranking among 29 inhibitors tested,[3],four best inhibitors
